Source: patent US6630492B1, “Lymphocyte function antigen-1 antagonists” (Novartis AG, priority 1997, dated 2003)
Like-named read-outs stand apart in the source and are kept apart here.

Legend:
[1] = biological target: T1, LFA-1/ICAM-1 interactions (Homo sapiens, UniProt P20701); test: Jurkat or Hut 78 cell adhesion to ICAM-1; type: cell-based
T1 construct: host or cells: Jurkat or Hut 78 cells
Method: Jurkat or Hut 78 cells obtained from ATCC and cultured in RPMI-1640 supplemented with 10% FCS, L-glutamine, non essential amino acids and 0.05 mM 2-mercaptoethanol, are centrifuged, washed once in PBS, and resuspended at 0.5×10^6 cells/ml in binding buffer (1.5% BSA, 5 mM glucose, 2 mM MgCl2, […] MnCl2 in TBS, pH 7) containing 5 μg/ml BCECF-AM (Molecular Probes). The cells are incubated at 37° C. for 30-45 min. in the dark. Then the cells are centrifuged and resuspended in binding buffer by pipetting and immediately used for experiment.
Flat well microtiter plates (NUNC Maxisorp) are coated with 1 μg/ml goat anti-mouse Cκ (Bioreba, South.Biot.) in carbonate buffer (15 mM Na2CO3, 35 mM NaHCO3, pH8.0) 2 hours at 37° C. The plates are emptied and blocked with 1.5% BSA and 0.5% Tween-20 in carbonate buffer for 90 min. at 37° C. The plates are emptied and washed once in TBS containing, 1.5% BSA. Baculovirus derived ICAM-1 mouse Cκ fusion protein (100 ng/ml in TBS/1.5% BSA) is added to the wells. The plates are incubated for 90 min. at 37° C. After three washes with TBS/1.5% BSA, the compound to be tested is diluted in binding buffer (as above but free from BSA and glucose) and added to the wells. Then 100 000 Jurkat or Hut 78 cells/well are added and allowed to adhere for 30 min. at 37° C. Adherent cells are separated from non-adherent cells by 2-4 washes using binding buffer. Adherent cells are quantified with a fluorescence ELISA reader CytofluorII with the filters set at 485 nm and 530 nm emission.

[2] = tested on: thioglycollate induced neutrophil migration; test: Murine thioglycollate induced peritonitis; type: in vivo; conditions: s.c., mice
Method: Thioglycollate is injected i.p. to mice and immediately thereafter the compound to be tested is given s.c. The mice are killed after 4 hours, the peritoneal cavity lavaged and the total number of neutrophils in the lavage fluid is determined.
In this assay, the compounds of the invention, e.g. mevinolins inhibit thioglycollate induced neutrophil migration when administered s.c. at a dose of from 0.001-50 mg/kg.

[3] = biological target: T2, LFA-1 I-domain (Homo sapiens, UniProt P20701); test: X-ray analysis of the complex of LFA-1 I-domain with mevinolin; type: binding
T2 construct: amino acid residues 128 to 309 of the α-chain of LFA-1 which corresponds to the I-domain
T2 sequence (P20701 153-334): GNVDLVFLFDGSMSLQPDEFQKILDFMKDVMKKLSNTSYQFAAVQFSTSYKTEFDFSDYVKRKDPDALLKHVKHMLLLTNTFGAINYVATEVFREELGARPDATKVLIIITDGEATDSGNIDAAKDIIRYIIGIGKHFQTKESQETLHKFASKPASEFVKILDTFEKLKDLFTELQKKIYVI
Method: The complex, LFA-1 I-domain/mevinolin, is prepared by adding mevinolin (100 mM solution in DMSO) to the protein solution (12.7 mg/ml, 100 mM MgSO4), followed by crystallization. The structure is solved by molecular replacement (using the coordinates of apo LFA-1 I domain, A. Qu & D. Leahy, above) and has been refined to a R factor of 19.4% (Rfree=25.9%) using X-ray amplitudes in the resolution range 8 Å-2.6 Å. The final model contains 2×182 amino acids (amino acid residues 128 to 309 of the α-chain of LFA-1 which corresponds to the I-domain), 2 mevinolin molecules and a total of 86 water molecules.

[4] = Jurkat cells, adhesion to ICAM-1, read-out: IC50 in the Jurkat Cell Assay

T1 sequence (P20701 26-1170): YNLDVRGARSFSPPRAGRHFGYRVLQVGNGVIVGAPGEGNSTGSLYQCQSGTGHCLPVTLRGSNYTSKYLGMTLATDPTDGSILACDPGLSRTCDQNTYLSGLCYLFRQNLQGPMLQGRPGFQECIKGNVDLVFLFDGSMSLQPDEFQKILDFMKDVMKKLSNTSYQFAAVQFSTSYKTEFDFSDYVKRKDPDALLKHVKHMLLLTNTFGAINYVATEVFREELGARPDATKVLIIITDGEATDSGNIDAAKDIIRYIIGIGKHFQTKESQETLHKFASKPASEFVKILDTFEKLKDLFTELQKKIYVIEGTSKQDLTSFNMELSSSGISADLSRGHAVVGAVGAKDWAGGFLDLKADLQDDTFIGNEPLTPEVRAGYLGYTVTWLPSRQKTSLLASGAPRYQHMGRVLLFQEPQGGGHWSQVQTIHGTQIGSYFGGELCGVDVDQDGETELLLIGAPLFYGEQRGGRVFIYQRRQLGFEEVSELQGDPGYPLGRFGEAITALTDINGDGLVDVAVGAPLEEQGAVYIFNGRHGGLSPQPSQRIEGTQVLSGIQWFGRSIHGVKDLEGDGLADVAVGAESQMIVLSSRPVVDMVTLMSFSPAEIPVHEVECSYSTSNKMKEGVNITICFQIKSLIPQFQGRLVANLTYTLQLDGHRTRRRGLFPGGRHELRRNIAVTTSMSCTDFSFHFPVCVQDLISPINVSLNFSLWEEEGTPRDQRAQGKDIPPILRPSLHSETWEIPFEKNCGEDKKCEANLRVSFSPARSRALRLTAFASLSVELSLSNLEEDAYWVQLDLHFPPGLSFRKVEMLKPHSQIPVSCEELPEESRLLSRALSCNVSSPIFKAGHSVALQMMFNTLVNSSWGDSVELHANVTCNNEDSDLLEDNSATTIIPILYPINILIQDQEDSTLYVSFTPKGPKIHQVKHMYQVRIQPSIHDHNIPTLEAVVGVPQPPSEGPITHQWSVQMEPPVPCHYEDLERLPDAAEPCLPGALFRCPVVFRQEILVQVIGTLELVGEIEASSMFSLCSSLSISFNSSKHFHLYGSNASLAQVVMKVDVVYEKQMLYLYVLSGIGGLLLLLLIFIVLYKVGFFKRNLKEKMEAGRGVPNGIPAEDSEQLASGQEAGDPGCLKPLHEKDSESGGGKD
T1 sequence (P05107 23-769 partner): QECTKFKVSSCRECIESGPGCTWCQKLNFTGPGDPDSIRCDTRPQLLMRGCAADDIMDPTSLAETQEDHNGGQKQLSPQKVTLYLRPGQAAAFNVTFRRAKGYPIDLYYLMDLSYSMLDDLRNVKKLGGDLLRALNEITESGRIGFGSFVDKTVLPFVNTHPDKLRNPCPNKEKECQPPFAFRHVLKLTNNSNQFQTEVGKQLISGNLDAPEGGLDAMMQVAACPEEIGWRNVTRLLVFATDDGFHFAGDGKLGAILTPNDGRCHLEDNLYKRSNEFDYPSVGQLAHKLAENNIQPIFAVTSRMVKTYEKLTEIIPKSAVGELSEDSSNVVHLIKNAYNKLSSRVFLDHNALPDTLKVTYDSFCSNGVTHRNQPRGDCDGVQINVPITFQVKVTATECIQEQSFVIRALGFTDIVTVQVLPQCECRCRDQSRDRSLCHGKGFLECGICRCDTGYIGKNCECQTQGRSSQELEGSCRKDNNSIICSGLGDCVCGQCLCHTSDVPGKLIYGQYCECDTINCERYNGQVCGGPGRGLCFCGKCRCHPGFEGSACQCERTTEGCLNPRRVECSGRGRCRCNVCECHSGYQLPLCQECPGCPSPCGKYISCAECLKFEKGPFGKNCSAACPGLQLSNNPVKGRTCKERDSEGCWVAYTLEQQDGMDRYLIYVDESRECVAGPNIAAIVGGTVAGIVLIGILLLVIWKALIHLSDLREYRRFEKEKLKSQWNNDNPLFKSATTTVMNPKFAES

## CC[C@H](C)C(=O)O[C@H]1C[C@@H](C)C=C2C=C[C@H](C)[C@H](CCC(O)CC(O)CC(=O)NCc3ccccc3OC)[C@H]21 (stereo partly shown) [Example 15]
[1]; [4]
  IC50: 2200 nM

## CC[C@H](C)C(=O)O[C@H]1C[C@@H](C)C=C2C=C[C@H](C)[C@H](CCC(O)CC(O)CC(=O)N3CCC4(CC3)OCCO4)[C@H]21 (stereo partly shown) [Example 33]
[1]
  IC50: 1200 nM
[2]; 0.1 mg/kg
  inhibition of neutrophil migration: fully inhibit

## CC[C@H](C)C(=O)O[C@H]1C[C@@H](C)C=C2C=C[C@H](C)[C@H](CC[C@@H]3C[C@@H](O)CC(=O)O3)[C@H]21 [mevinolin, Mevinolin]
[3]; X-ray analysis of the complex
  binding to the MIDAS-site: does not bind to the MIDAS-site
[3]; between the C-terminal helix α7 and one side of the β-sheet
  binding to the LFA-1 I-domain (south pole pocket): binds to the LFA-1 I-domain

## CCC(C)C(=O)OC1CC(C)C=C2C=CC(C)C(CCC(O)CC(CC(=O)NCCO)NCCO)C21 (stereo not shown) [Example 6, 2-Methyl-butyric Acid 8-[3-Hydroxy-5-(2-hydroxy-ethylamino)-6-(2-hydroxy-ethylcarbamoyl)-hexyl]-3,7-dimethyl-1,2,3,7,8,8a-hexahydro-naphthalen-1-yl Ester]
[1]; [4]
  IC50: 4000 nM
[2]; 1 mg/kg
  inhibition of neutrophil migration: fully inhibit
